Assay results from paper doi:10.1101/2021.06.24.449719v1 (biorxiv, 2021).

Test system: BuGH3MLG
Experiment: p-nitrophenol release, absorbance […] nm
Type: biochemical, Bacteroides uniformis
Conditions: sodium phosphate pH 5.7, 37 °C

Question: With `O=[N+]([O-])c1ccc(O[C@@H]2O[C@H](CO)[C@@H](O[C@@H]3O[C@H](CO)[C@@H](O)[C@H](O)[C@H]3O)[C@H](O)[C@H]2O)cc1` [p-Nitrophenyl β-D-cellobioside] as the compound, how does the Km read?
Answer: 640 ± 90 µM

Question: How did the Km turn out when `O=[N+]([O-])c1ccc(O[C@@H]2O[C@H](CO)[C@@H](O)[C@H](O[C@@H]3O[C@H](CO)[C@@H](O)[C@H](O)[C@H]3O)[C@H]2O)cc1` [p-Nitrophenyl β-D-laminaribioside] was run?
Answer: 880 ± 160 µM

Question: `O=[N+]([O-])c1ccc(O[C@@H]2O[C@H](CO)[C@@H](O)[C@H](O)[C@H]2O)cc1` [p-Nitrophenyl-β-D-glucopyranoside] was tested. Which Km did it give?
Answer: 530 ± 120 µM

Question: For `CC(=O)N[C@H]1[C@H](Oc2ccc([N+](=O)[O-])cc2)O[C@H](CO)[C@@H](O)[C@@H]1O` [p-nitrophenyl-N-acetyl glucosaminide], which Km is on record?
Answer: 2900 ± 700 µM

Test system: BuGH3MLG
Experiment: PAHBAH reducing sugar assay, […] nm
Type: biochemical, Bacteroides uniformis
Conditions: 30 min hydrolysis

Question: Which Km does the source give for `OC[C@H]1O[C@@H](O[C@H]2[C@H](O)[C@@H](O)C(O)O[C@@H]2CO)[C@H](O)[C@@H](O)[C@@H]1O` (stereo partly shown) [Cellobiose] here?
Answer: 7.4 ± 1.24 µM

Question: `OC[C@H]1O[C@@H](O[C@H]2[C@H](O)[C@@H](O)[C@H](O[C@H]3[C@H](O)[C@@H](O)[C@H](O[C@H]4[C@H](O)[C@@H](O)C(O)O[C@@H]4CO)O[C@@H]3CO)O[C@@H]2CO)[C@H](O)[C@@H](O)[C@@H]1O` (stereo partly shown) [Cellotetraose] was tested. Which Km did it give?
Answer: 56.9 ± 9 µM

Question: Which Km does the source give for `OC[C@H]1O[C@@H](O[C@H]2[C@H](O)[C@@H](O)[C@H](O[C@H]3[C@H](O)[C@@H](O)C(O)O[C@@H]3CO)O[C@@H]2CO)[C@H](O)[C@@H](O)[C@@H]1O` (stereo partly shown) [Cellotriose] here?
Answer: 26.1 ± 5.5 µM

Question: `OC[C@H]1O[C@@H](O[C@H]2[C@H](O)[C@@H](O)[C@H](O[C@H]3[C@H](O)[C@@H](O)[C@H](O[C@H]4[C@H](O)[C@@H](CO)OC(O)[C@@H]4O)O[C@@H]3CO)O[C@@H]2CO)[C@H](O)[C@@H](O)[C@@H]1O` (stereo partly drawn) [G4G4G3G, β-d-Glc^iv(1→4)β-d-Glc^iii(1→4)β-d-Glc^ii(1→3)-d-Glc^i] was tested. Which Km did it give?
Answer: 28.2 ± 6.2 µM

Question: How did the Km turn out when `OC[C@H]1O[C@@H](OC[C@H]2OC(O)[C@H](O)[C@@H](O)[C@@H]2O)[C@H](O)[C@@H](O)[C@@H]1O` (stereo partly shown) [Gentiobiose] was run?
Answer: 241 ± 16.2 µM

Question: For `OC[C@H]1O[C@@H](O[C@H]2[C@H](O)[C@@H](CO)OC(O)[C@@H]2O)[C@H](O)[C@@H](O)[C@@H]1O` (stereo partly shown) [Laminaribiose], which Km is on record?
Answer: 7.1 ± 1.2 µM

Question: `OC[C@H]1O[C@@H](O[C@@H]2[C@@H](O)[C@H](O[C@@H]3[C@@H](O)[C@H](O[C@H]4[C@H](O)[C@@H](CO)OC(O)[C@@H]4O)O[C@H](CO)[C@H]3O)O[C@H](CO)[C@H]2O)[C@H](O)[C@@H](O)[C@@H]1O` (stereo partly shown) [Laminaritetrose] was tested. Which Km did it give?
Answer: 9.9 ± 1.1 µM

Question: Which Km does the source give for `OC[C@H]1O[C@@H](O[C@@H]2[C@@H](O)[C@H](O[C@H]3[C@H](O)[C@@H](CO)OC(O)[C@@H]3O)O[C@H](CO)[C@H]2O)[C@H](O)[C@@H](O)[C@@H]1O` (stereo partly shown) [Laminaritriose] here?
Answer: 7.5 ± 0.5 µM

Question: `OC[C@H]1O[C@@H](O[C@H]2[C@H](O)[C@@H](O)[C@H](O[C@H]3[C@H](O)[C@@H](CO)OC(O)[C@@H]3O)O[C@@H]2CO)[C@H](O)[C@@H](O)[C@@H]1O` (stereo partly drawn) [β-D-cellobiosyl-glucose, β-d-Glc^iii(1→4)β-d-Glc^ii(1→3)-d-Glc^i] was tested. Which Km did it give?
Answer: 41.3 ± 7 µM
